Measurements: the supplement of paper PMC6045584
± gives the standard deviation of the averaged measurements.

These test systems were tested with O=C(O)CC[C@H]1CC[C@@](c2cc(F)ccc2F)(S(=O)(=O)c2ccc(Cl)cc2)CC1 [MK0752] (assay: surviving fraction relative to DMSO-only wells; higher = less growth inhibition). Conditions: 5 nM; exposure time: 5 days.
Outline: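 At 250–500 cells per well in 384-well plates, log-phase tumour cell lines were seeded and, 24 hours on, exposed continuously for five days to inhibitors at 0.5, 1, 5, 10, 50, 100, 500 and 1000 nM. Viability readout was CellTiter-Glo luminescence, reported as surviving fraction normalised to the median of DMSO-only wells.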

| Test System | surviving fraction |
| --- | --- |
| HCC70 BREAST | 1.132 ± 0.01 |
| HCC78 LUNG | 1.08 ± 0.16 |
| HCC202 BREAST | 0.94 ± 0.78 |
| HCC1806 BREAST | 1.23 ± 0.1 |
| HCC1954 BREAST | 1.18 ± 0.13 |
| HCT15 LARGE INTESTINE | 1.11 ± 0.032 |
| HELA CERVIX | 1.08 ± 0.023 |
| HMLE3 BREAST | 1.08 ± 0.024 |
| HMT3552 BREAST | 1.01 |
| HOS BONE | 1.058 ± 0.01 |
| HOSMNG BONE | 0.959 ± 0.052 |
| HS57T BREAST | 1.18 ± 0.061 |
| HS578T BREAST | 0.883 ± 0.11 |
| HSSYII SYNOVIAL | 1.03 ± 0.063 |
| HT1080 SOFT TISSUE | 1.04 ± 0.026 |
| HU09 BONE | 1.11 ± 0.052 |
| JIMT1 BREAST | 0.997 ± 0.042 |
| JURKAT HAEMATOPOIETIC AND LYMPHOID TISSUE | 1.07 ± 0.012 |
| KPD BONE | 1.12 ± 0.042 |
| LM7 BONE | 1.08 ± 0.096 |
| MCF7 BREAST | 0.916 ± 0.0061 |

| Test System | surviving fraction |
| --- | --- |
| MDAMB134 BREAST | 0.96 ± 0.16 |
| MDAMB157 BREAST | 0.969 ± 0.14 |
| MDAMB231 BREAST | 1.02 ± 0.019 |
| MDAMB361 BREAST | 0.873 ± 0.044 |
| MDAMB436 BREAST | 0.885 ± 0.051 |
| MDAMB453 BREAST | 1.1 ± 0.023 |
| MDAMB468 BREAST | 1.1 ± 0.035 |
| MFM223 BREAST | 1.16 ± 0.048 |
| MG63 BONE | 1.11 ± 0.037 |
| MHM BONE | 1.06 ± 0.029 |
| NCIH441 LUNG | 1.11 ± 0.057 |
| NOS1 BONE | 1.16 ± 0.12 |
| NY BONE | 1.11 ± 0.017 |
| OS25HAL BONE | 1.022 ± 0.0072 |
| OSHN BONE | 1.11 ± 0.018 |
| PCI30 HEADNECK | 1.09 ± 0.057 |
| RDES SOFT TISSUE | 1.17 ± 0.1 |
| S68 BREAST | 0.912 ± 0.11 |
| SAOS2 BONE | 1.19 ± 0.12 |
| SCC36 HEADNECK | 1.19 ± 0.064 |

Same assay, conditions: 10 nM; exposure time: 5 days

| Test System | surviving fraction |
| --- | --- |
| HCC70 BREAST | 1.08 ± 0.029 |
| HCC78 LUNG | 1.07 ± 0.12 |
| HCC202 BREAST | 1.27 ± 0.18 |
| HCC1806 BREAST | 1.21 ± 0.086 |
| HCC1954 BREAST | 1.15 ± 0.15 |
| HCT15 LARGE INTESTINE | 1.09 ± 0.055 |
| HELA CERVIX | 1.09 ± 0.035 |
| HMLE3 BREAST | 1.06 ± 0.062 |
| HMT3552 BREAST | 0.985 |
| HOS BONE | 1.04 ± 0.016 |
| HOSMNG BONE | 0.981 ± 0.046 |
| HS57T BREAST | 1.14 ± 0.1 |
| HS578T BREAST | 1.01 ± 0.11 |
| HSSYII SYNOVIAL | 1.02 ± 0.059 |
| HT1080 SOFT TISSUE | 1 ± 0.051 |
| HU09 BONE | 1.181 ± 0.0032 |
| JIMT1 BREAST | 0.97 ± 0.042 |
| JURKAT HAEMATOPOIETIC AND LYMPHOID TISSUE | 1.02 ± 0.051 |
| KPD BONE | 1.05 ± 0.035 |
| LM7 BONE | 0.996 ± 0.098 |
| MCF7 BREAST | 0.905 ± 0.076 |

| Test System | surviving fraction |
| --- | --- |
| MDAMB134 BREAST | 1.16 ± 0.079 |
| MDAMB157 BREAST | 1.05 ± 0.022 |
| MDAMB231 BREAST | 1.01 ± 0.02 |
| MDAMB361 BREAST | 0.851 ± 0.084 |
| MDAMB436 BREAST | 0.901 ± 0.097 |
| MDAMB453 BREAST | 1.09 ± 0.051 |
| MDAMB468 BREAST | 1.07 ± 0.07 |
| MFM223 BREAST | 1.155 ± 0.0068 |
| MG63 BONE | 1.08 ± 0.022 |
| MHM BONE | 1.06 ± 0.043 |
| NCIH441 LUNG | 1.08 ± 0.099 |
| NOS1 BONE | 1.27 ± 0.068 |
| NY BONE | 1.11 ± 0.052 |
| OS25HAL BONE | 0.99 ± 0.04 |
| OSHN BONE | 1.11 ± 0.018 |
| PCI30 HEADNECK | 1.1 ± 0.05 |
| RDES SOFT TISSUE | 1.21 ± 0.18 |
| S68 BREAST | 0.96 ± 0.28 |
| SAOS2 BONE | 1.22 ± 0.077 |
| SCC36 HEADNECK | 0.962 ± 0.057 |
